{"source": "patent US20230414593A1", "about": "“EZH2 INHIBITION THERAPIES FOR THE TREATMENT OF ANDROGEN RECEPTOR MUTATED PROSTATE CANCERS” (Constellation Pharmaceuticals, Inc, priority 2020, published 2023)", "system": "LNCaP-FGC tumor cells", "assay": "Tumor growth inhibition in prostate cancer LNCaP model with AR mutation H875Y", "assay_type": "in vivo, mouse", "conditions": "75 mg/kg orally once daily, LNCaP-FGC subcutaneous tumors, Cmp. 1 compared with Cmp. 2, FIG. 2", "protocol": "(R)-7-chloro-2-((1r,4R)-4-(3-methoxyazetidin-1-yl)cyclohexyl)-2,4-dimethyl-N-((6-methyl-4-(methylthio)-2-oxo-1,2-dihydropyridin-3-yl)methyl)benzo[d][1,3]dioxole-5-carboxamide and R—N-((4-methoxy-6-methyl-2-oxo-1,2-dihydropyridin-3-yl)methyl)-2-methyl-1-(1-(1-(2,2,2-trifluoroethyl)piperidin-4-yl)ethyl)-1H-indole-3-carboxamide were examined in a prostate cancer LNCaP Model with AR mutation H875Y.\nA fixed dose of 75 mg/kg was used for both compounds. Each mouse was inoculated subcutaneously at the right flank with LNCaP-FGC tumor cells (10×10^6) in 0.1 ml of PBS mixed with RPMI-1640:Matrigel (50:50) for tumor development. The treatments started when the average tumor volume reached approximately 158 mm^3. The test articles were administered orally once daily. The tumor size was used for the calculation of tumor growth inhibition (TGI)=[1−(T1−T0)/(C1−C0)]×100, where C1=mean tumor volume of control mice at time t, T1=mean tumor volume of treated mice at time t, C0=mean tumor volume of control mice at time 0, and T0=mean tumor volume of treated mice at time 0].", "data": [{"smiles": "COC1CN([C@H]2CC[C@H]([C@@]3(C)Oc4c(Cl)cc(C(=O)NCc5c(SC)cc(C)[nH]c5=O)c(C)c4O3)CC2)C1", "note": "[Cmp. 1, (R)-7-chloro-2-((1r,4R)-4-(3-methoxyazetidin-1-yl)cyclohexyl)-2,4-dimethyl-N-((6-methyl-4-(methylthio)-2-oxo-1,2-dihydropyridin-3-yl)methyl)benzo[d][1,3]dioxole-5-carboxamide]", "values": [{"measurement": "tumor growth inhibition (TGI), relative tumor volume % reduction", "value": "more efficacious at tumor growth inhibition"}, {"measurement": "tumor growth inhibition (TGI), relative tumor volume % reduction", "setting": "listed as (R)-7-chloro-2-(1r,4R)-4-(3-methoxyazetidin-1-yl)cyclohexyl)-2,4-dimethyl-N-((6)", "value": "more efficacious"}]}]}
